# Biological target: Protein mono-ADP-ribosyltransferase PARP14 (Homo sapiens, UniProt Q460N5)
# Assay: Displacement of ARTK(Bio)QTARK(Aoa-RADP)S from His6-tagged PARP14 MD2 (A994 to N1191 residues) (unknown origin) expressed in bacterial expression system after 30 mins by AlphaScreen assay
# Chain of Protein mono-ADP-ribosyltransferase PARP14 (Q460N5 whole entry, the tested form may be a part): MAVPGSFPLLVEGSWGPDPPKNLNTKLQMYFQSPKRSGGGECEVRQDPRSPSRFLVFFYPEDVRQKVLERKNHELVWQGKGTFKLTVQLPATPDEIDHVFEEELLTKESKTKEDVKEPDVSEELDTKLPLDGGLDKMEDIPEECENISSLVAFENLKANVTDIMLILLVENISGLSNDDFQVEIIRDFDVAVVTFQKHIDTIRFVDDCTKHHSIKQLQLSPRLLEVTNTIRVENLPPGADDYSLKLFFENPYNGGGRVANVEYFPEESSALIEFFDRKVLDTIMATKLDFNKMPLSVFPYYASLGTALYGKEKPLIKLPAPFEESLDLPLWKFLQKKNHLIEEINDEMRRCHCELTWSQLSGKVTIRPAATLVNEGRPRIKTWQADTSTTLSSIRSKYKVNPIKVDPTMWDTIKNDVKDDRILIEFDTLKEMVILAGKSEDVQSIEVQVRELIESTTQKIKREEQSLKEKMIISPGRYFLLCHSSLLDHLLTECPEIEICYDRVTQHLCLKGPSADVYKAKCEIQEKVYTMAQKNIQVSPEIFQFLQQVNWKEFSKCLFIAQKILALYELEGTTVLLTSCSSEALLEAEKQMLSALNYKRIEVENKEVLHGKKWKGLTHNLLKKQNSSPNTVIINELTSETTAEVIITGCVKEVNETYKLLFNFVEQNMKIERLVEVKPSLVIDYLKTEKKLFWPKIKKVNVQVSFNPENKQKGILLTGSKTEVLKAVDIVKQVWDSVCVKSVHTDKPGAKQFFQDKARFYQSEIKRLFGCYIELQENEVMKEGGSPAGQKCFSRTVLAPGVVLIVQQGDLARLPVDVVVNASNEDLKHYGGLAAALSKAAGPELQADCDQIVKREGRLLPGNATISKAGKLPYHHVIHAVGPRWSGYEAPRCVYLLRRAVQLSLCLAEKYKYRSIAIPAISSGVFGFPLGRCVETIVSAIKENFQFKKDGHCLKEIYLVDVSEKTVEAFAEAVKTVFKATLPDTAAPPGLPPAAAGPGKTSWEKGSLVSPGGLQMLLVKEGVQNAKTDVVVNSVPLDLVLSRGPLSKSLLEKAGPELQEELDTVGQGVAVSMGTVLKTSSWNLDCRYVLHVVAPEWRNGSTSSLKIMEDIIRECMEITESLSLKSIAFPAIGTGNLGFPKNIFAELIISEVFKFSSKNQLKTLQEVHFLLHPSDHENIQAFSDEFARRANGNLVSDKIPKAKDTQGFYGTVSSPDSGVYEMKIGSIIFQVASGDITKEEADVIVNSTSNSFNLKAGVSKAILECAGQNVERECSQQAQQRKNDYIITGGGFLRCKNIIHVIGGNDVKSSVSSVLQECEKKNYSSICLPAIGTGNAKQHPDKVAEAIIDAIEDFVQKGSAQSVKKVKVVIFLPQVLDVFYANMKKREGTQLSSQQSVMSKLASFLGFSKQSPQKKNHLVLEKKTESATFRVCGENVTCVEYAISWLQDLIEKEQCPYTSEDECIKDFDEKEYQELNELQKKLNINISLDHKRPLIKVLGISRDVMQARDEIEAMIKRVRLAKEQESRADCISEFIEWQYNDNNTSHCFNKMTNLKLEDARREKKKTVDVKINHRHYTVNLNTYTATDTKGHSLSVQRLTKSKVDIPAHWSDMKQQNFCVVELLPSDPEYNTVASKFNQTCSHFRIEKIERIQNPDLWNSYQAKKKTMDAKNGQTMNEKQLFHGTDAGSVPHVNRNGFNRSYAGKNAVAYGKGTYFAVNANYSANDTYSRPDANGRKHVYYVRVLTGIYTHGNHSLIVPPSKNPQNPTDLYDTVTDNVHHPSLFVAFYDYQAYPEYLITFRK
row,SMILES,IC50
1,CC(=O)Nc1ccccc1-c1cccc2c(C(C)C)c[nH]c12,18 µM
2,COc1ccc2[nH]c3c(-c4ccccc4NC(C)=O)cccc3c2c1,> 50 µM
3,CC(=O)Nc1ccccc1-c1cccc2c3c([nH]c12)CCNC3,> 50 µM
4,CC(Nc1ccccc1-c1cccc2c1[nH]c1ccccc12)C(F)(F)F (racemic),> 50 µM

# — ChEMBL document CHEMBL4219165, “Discovery of a novel allosteric inhibitor scaffold for polyadenosine-diphosphate-ribose polymerase 14 (PARP14) macrodomain 2” (Bioorg Med Chem, 2018)
